{"source": "patent US20150223457A1", "about": "“METHOD OF COMBATTING SOYBEAN SUDDEN DEATH SYNDROME USING SUBSTITUTED PYRAZOLAMIDES” (Syngenta Participations AG, priority 2012, published 2015)", "key": {"[1]": {"test_system": "Fusarium virguliforme", "test": "Sensitivity of F. virguliforme isolates: mycelial growth inhibition on amended potato dextrose agar plates", "assay_type": "cell-based", "settings": "for ED50 (effective dose for 50% of the fungal growth inhibition): potato dextrose agar, 20° C., 9 days", "procedure": "The sensitivity of 4 F. virguliforme isolates to the compound No. 1.001 was determined by comparing the mycelial growth inhibition of on potato dextrose agar plates amended or not with the compound No. 1.001. The compound No. 1.001 was tested at the following concentrations: 0, 0.001, 0.01, 0.1, 1 and 10 mg.ai./L. The fungicide fludioxonil (commercial formulation Maxim 4 FS) was included in the sensitivity study. The plates were incubated at 20° C. for 9 days. The sensitivity test was set in a completely randomized design with 2 replications for each concentration of fungicide tested. Data obtained for each isolate was transformed using an arcsine transformation. The effective dose for 50% of the fungal growth inhibition (ED50 values) was calculated by regressing the transformed growth inhibition data against the log of the fungicide concentration."}, "[2]": {"test_system": "Fusarium virguliforme", "test": "Seed treatment efficacy against soybean sudden death syndrome (inoculated seeds in rolled paper towels)", "assay_type": "in vivo", "settings": "fungicide rate 2.5 mg a.i./100 kg seed; soybean cultivar S36-B6, isolate 10-118, hypocotyls and roots, 19 days at 18° C., mean of 3 replications", "procedure": "A study was conducted to determine the efficacy of the compound No. 1.001 against F. virguliforme the causal agent of the sudden death syndrome on soybeans. Soybean seeds of the cultivar S36-B6 were treated with the compound No. […] […] Ten soybean seeds were placed on a paper towel (Scotts paper towels, 25.4 cm×33.02 cm in size) that has been previously moistened with 40 milliliters of water. Seeds were inculated with 100 microliters of a F. virguliforme conidial suspension adjusted to 100,000 conidia per milliliter of water. The isolate with the identification number 10-118 of F. virguliforme was used used in this study since it is sensitive to fludioxonil. Inoculated seeds seeds were then covered with another paper towel. Starting at one end, the paper towels with seeds were rolled loosely in a cylinder-fashion. The rolled paper towels with the inoculated seeds were placed into a zipped plastic bag. Bags were labelled with the fungicide treatment and dated. Bags with seeds were then placed in a growth room at a temperature of 18° C. and 12 h photoperiod for 19 days. The study was conducted using a completely randomized design with 3 replications. Disease severity was conducted on the hypocotyls and roots and measured as percentage."}}}
{"smiles": "N#Cc1c[nH]cc1-c1cccc2c1OC(F)(F)O2", "note": "[Fludioxonil, fludioxonil]", "values": [{"measurement": "ED50 (effective dose for 50% of the fungal growth inhibition)", "setting": "[1]; isolate 10-118", "result": 0.206, "unit": "mg ai/L"}, {"measurement": "ED50 (effective dose for 50% of the fungal growth inhibition)", "setting": "[1]; isolate 10-119", "result": ">10", "unit": "mg ai/L"}, {"measurement": "ED50 (effective dose for 50% of the fungal growth inhibition)", "setting": "[1]; isolate 10-120", "result": ">10", "unit": "mg ai/L"}, {"measurement": "ED50 (effective dose for 50% of the fungal growth inhibition)", "setting": "[1]; isolate 10-230", "result": ">10", "unit": "mg ai/L"}, {"measurement": "sensitivity of isolate to the fungicide (in words)", "setting": "[1]; one isolate of 4", "result": "sensitive"}, {"measurement": "dose response of isolates to the fungicide (in words)", "setting": "[1]; the other 3 isolates of 4", "result": "not a dose response"}, {"measurement": "% disease severity", "setting": "[2]", "result": 20.9, "unit": "%"}]}
